Results: patent EP0326579B1, “IMPROVEMENT OF THE BIOCOMPATIBILITY OF SOLID SURFACES” (BIO-METRIC SYSTEMS, INC., priority 1986, dated 1988)

Key:
Bovine endothelial cells [1] = assay: Attachment of endothelial cells to modified plastic surfaces (viable cell counts, trypan blue); assay type: cell-based; details: treated polyvinyl chloride surface; number of viable cells attached to each piece
Experimental: B. Attachment of Bovine Endothelial Cells to Modified Plastic Surfaces. Bovine endothelial cells were collected from fetal animals 8-24" in length. Cornea, aorta and umbilical endothelial cells were harvested aseptically. Cells were grown in a 5% CO₂ incubator at 37°C in a known high glucose cell growth medium such as Dulbecco's modified Eagle's medium (described in R. Dulbecco and G. Freeman, Virology, Vol. 8:396 (1959) and J. D. Smith, G. Freeman, M. Vogt and R. Dulbecco, Virology, Vol. 12:185-196 (1960)) with 25mmole HEPES buffer, 10% bovine calf serum, and 2.5 micrograms amphotericin B/ml (the "growth media"). Once the plates, tubes or sheets were prepared; cell cultures were prepared from primary cell lines. The cells were detached from the cell culture surface with a 0.25% solution of trypsin and resuspended in the growth media. Cells were then counted using a trypan blue (0.4%) solution and a hemocytometer. Various concentrations of cells were layered on the prepared materials. Cell attachment was monitored for various time periods from 5 minutes to 14 days. Attachments were determined by at least two methods. In one, sample materials were removed from culture media and washed 2 times with sterile saline. Cell stains were then applied and total cells on the surface were counted. A second method was to trypsinize the cells off the surface with a trypsin solution and count using the trypan blue method. Representive results of the attachment and outgrowth of endothelial cells on precoated polyvinyl chloride plastic pieces are reported in Table 3. The number of viable cells attached to each piece were determined by trypan blue staining procedures.

Bovine endothelial cells [2] = assay: Outgrowth measurement using endothelial cells from a point of origin; assay type: cell-based; details: treated polyvinyl chloride surface

Substance	3-day cell counts (Bovine endothelial cells [1])	7-day cell counts (Bovine endothelial cells [1])	7-day outgrowth (Bovine endothelial cells [2])
BBA-COL: Human placenta Type IV collagen coupled to the NOS ester of benzoylbenzoic acid	5749	21500	2.5-4.0 mm
ANP-EAC-COL: Human placenta Type IV collagen coupled to ANP-EAC-NOS (photolabeled collagen)	14500	15833	1.0-3.0 mm
